The target in one experiment is LZK (Homo sapiens (Human), UniProt O43283). Put plainly: LZK biochemical assay (TR-FRET, MKK7 phosphorylation). In a few lines: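 Readout is the HTRF ratio (XL665/Eu) from an EDTA-containing detection mix of 0.4 nM Eu-anti-phospho-MKK7 (T275/S277) and 20 nM XL665-anti-His, incubated 16 h at 32° C. This followed a 90 min RT reaction of 10 nM LZK catalytic domain, 15 nM MKK7 and 15 μM ATP at pH 7.5.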
Background: TR-FRET usually uses a lanthanide donor and a delayed reading to cut background.

The next experiment has as its target DLK (Homo sapiens (Human), UniProt Q12852). Put plainly: DLK biochemical assay (TR-FRET, MKK7 phosphorylation). In a few lines:
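TR-FRET ratio (665/Eu) reports MKK7 T275/S277 phosphorylation, lowered by DLK inhibition. Reaction: 60 μM ATP, 15 nM MKK7, 10 nM DLK catalytic domain, 90 min room temperature; detection incubation 16 h, 37° C. (1536-well) or 4° C. (384-well). Final concentrations.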

DLK, sequence (Q12852 1-520): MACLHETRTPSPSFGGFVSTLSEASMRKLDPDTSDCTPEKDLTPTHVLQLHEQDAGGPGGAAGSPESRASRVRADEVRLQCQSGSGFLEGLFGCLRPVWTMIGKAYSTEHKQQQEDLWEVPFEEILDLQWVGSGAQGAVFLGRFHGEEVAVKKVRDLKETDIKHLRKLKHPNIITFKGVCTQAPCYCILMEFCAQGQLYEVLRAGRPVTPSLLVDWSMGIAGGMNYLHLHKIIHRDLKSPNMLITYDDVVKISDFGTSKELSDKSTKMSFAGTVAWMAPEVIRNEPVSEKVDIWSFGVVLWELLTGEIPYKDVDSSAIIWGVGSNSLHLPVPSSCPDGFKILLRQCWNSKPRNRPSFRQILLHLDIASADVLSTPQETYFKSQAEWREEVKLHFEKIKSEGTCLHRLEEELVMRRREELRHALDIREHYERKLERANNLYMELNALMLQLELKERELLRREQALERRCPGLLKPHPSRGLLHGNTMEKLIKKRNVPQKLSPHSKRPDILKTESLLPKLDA
LZK, sequence (O43283 168-409): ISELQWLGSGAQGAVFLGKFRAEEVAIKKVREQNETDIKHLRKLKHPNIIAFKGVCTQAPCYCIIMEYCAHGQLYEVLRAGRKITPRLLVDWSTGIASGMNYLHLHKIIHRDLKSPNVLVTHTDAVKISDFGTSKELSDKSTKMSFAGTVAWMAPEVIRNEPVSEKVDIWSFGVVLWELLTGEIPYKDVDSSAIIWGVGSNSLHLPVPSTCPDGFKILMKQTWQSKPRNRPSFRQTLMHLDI

Turning to `COC[C@H](C)NC(=O)c1cc(-c2csc(C(=O)NCc3ccccc3)c2)cn2nc(N)nc12` [Compound 67], the figures for the concentration for half-maximal inhibition (IC50) at LZK and against DLK were 1700 nM and 200 nM, respectively.

With `COC[C@H](C)NC(=O)c1cc(-c2csc(C(=O)NCc3ccc(F)cc3)c2)cn2nc(N)nc12` [Compound 68], the IC50 stood at 1600 nM against LZK and 300 nM against DLK.

Regarding `COC[C@H](C)NC(=O)c1cc(-c2csc(C(=O)N[C@@H](C)c3ccc(F)cc3)c2)cn2nc(N)nc12` [Compound 69], the half-maximal inhibitory concentration (IC50) on LZK was found to be 1100 nM; against DLK it was 60 nM.

As for `COC[C@H](C)NC(=O)c1cc(-c2csc(C(=O)N[C@@H](C)c3ccccc3)c2)cn2nc(N)nc12` [Compound 70], the IC50 against LZK is 1400 nM; against DLK, 76 nM.

With `Nc1nc2c(C(=O)NC3COC3)cc(-c3csc(C(=O)NCc4ccc(F)cc4)c3)cn2n1` [Compound 74], the IC50 against LZK amounted to 5600 nM; against DLK, 320 nM.

Regarding `CC[C@H](NC(=O)c1cc(-c2cc(C(=O)NC3COC3)c3nc(N)nn3c2)cs1)c1ccccc1` [Compound 75], the figures for the IC50 at LZK and on DLK were 4200 nM and 67 nM, respectively.

Consider `CC[C@H](NC(=O)c1cc(-c2cc(C(=O)NC(C)C)c3nc(N)nn3c2)cs1)c1ccccc1` [Compound 76], for which the IC50 worked out at 87 nM at LZK and 5.15 nM against DLK.

In the case of `CC[C@H](NC(=O)c1cc(-c2cc(C(=O)N[C@@H](C)CO)c3nc(N)nn3c2)cs1)c1ccccc1` [Compound 77], the values for the half-inhibitory concentration (IC50) against LZK and on DLK were 36 nM and 1.8 nM, respectively.

Take `C[C@H](NC(=O)c1cc(-c2cc(C(=O)NC(C)(C)CO)c3nc(N)nn3c2)cs1)c1ccccc1` [Compound 79]: the values for the IC50 on LZK and at DLK were 210 nM and 11.5 nM, respectively.

As for `CC(C)(CO)NC(=O)c1cc(-c2csc(C(=O)NCc3ccc(F)cc3)c2)cn2nc(N)nc12` [Compound 80], the IC50 came out at 130 nM on LZK and 56.5 nM against DLK.

Turning to `CC[C@H](NC(=O)c1cc(-c2cc(C(=O)N[C@@H](C)COC)c3nc(N)nn3c2)cs1)c1ccccc1` [Compound 81], the figures for the IC50 against LZK and against DLK were 140 nM and 10 nM, respectively.

In the case of `CCNC(=O)c1cc(-c2csc(C(=O)N[C@@H](CC)c3ccccc3)c2)cn2nc(N)nc12` [Compound 82], the IC50 is 455 nM against LZK and 12.5 nM against DLK.

As for `CC(C)NC(=O)c1cc(-c2csc(C(=O)N[C@@H](C)c3ccc(C(F)(F)F)cc3)c2)cn2nc(N)nc12` [Compound 83], the figures for the IC50 against LZK and on DLK were 4200 nM and 73 nM, respectively.

`CC[C@H](NC(=O)c1cc(-c2cc(C(=O)NC(C)(C)C)c3nc(N)nn3c2)cs1)c1ccccc1` [Compound 84]: the IC50 stood at 340 nM against LZK and 19 nM against DLK.

As for `CC(C)NC(=O)c1cc(-c2csc(C(N)=O)c2)cn2nc(N)nc12` [Compound 85], the IC50 was 900 nM against LZK and 360 nM against DLK.

As to `C[C@@H](CO)NC(=O)c1cc(-c2csc(C(N)=O)c2)cn2nc(N)nc12` [Compound 86], the IC50 is 1100 nM against LZK and 360 nM against DLK.

On to `CC[C@H](C)NC(=O)c1cc(-c2csc(C(=O)NCc3ccccc3)c2)cn2nc(N)nc12` [Compound 87], for which the IC50 against LZK came out at 48 nM; at DLK, 11 nM.

As to `CC[C@H](C)NC(=O)c1cc(-c2csc(C(=O)N[C@@H](C)c3ccccc3)c2)cn2nc(N)nc12` [Compound 88], the IC50 against LZK is 37 nM; against DLK, 3.2 nM.

On to `CC[C@H](NC(=O)c1cc(-c2cc(C(=O)N[C@@H](C)CC)c3nc(N)nn3c2)cs1)c1ccccc1` [Compound 89], for which the IC50 against LZK stood at 51 nM; against DLK it was 3.7 nM.

Regarding `Cc1ccc([C@H](C)NC(=O)c2cc(-c3cc(C(=O)NC(C)C)c4nc(N)nn4c3)cs2)cc1` [Compound 90], the IC50 at LZK worked out at 490 nM; against DLK it was 21 nM.

`C[C@H](NC(=O)c1cc(-c2cc(C(=O)NC3CCC3)c3nc(N)nn3c2)cs1)c1ccc(C(F)(F)F)cc1` [Compound 92]: the IC50 at LZK came out at 2000 nM; against DLK, 55 nM.

For `CC[C@H](C)NC(=O)c1cc(-c2csc(C(=O)NCc3ccc(F)cc3)c2)cn2nc(N)nc12` [Compound 93], the IC50 against LZK is 41 nM; on DLK, 11 nM.

For the molecule `CC[C@H](C)NC(=O)c1cc(-c2csc(C(=O)N[C@@H](C)c3ccc(F)cc3)c2)cn2nc(N)nc12` [Compound 94, 2-Amino-N-[(2S)-butan-2-yl]-6-(5-{[(1S)-1-(4-fluorophenyl)ethyl]carbamoyl}thiophen-3-yl)[1,2,4]triazolo[1,5-a]pyridine-8-carboxamide], the IC50 at LZK amounted to 34 nM; against DLK, 4.75 nM.

In the case of `CC(C)NC(=O)c1cc(-c2csc(C(=O)N[C@@H](C)c3nc4ccccc4o3)c2)cn2nc(N)nc12` [Compound 95], the IC50 on LZK amounted to 130 nM; at DLK, 14 nM.

As to `CC(C)NC(=O)c1cc(-c2csc(C(=O)N[C@H](C)c3ccccc3)c2)cn2nc(N)nc12` [Compound 97], the IC50 against LZK was 140 nM; against DLK, 16 nM.

With `C[C@H](NC(=O)c1cc(-c2cc(C(=O)N[C@H]3CCOC3)c3nc(N)nn3c2)cs1)c1ccc(F)cc1` [Compound 98], the values for the IC50 against LZK and against DLK were 60 nM and 7.5 nM, respectively.

With `CC(C)NC(=O)c1cc(-c2csc(C(=O)N(C)[C@@H](C)c3ccc(F)cc3)c2)cn2nc(N)nc12` [Compound 99], the 50% inhibitory concentration (IC50) amounted to 2400 nM at LZK and 330 nM at DLK.

Regarding `C[C@H](NC(=O)c1cc(-c2cc(C(=O)N[C@@H](C)CO)c3nc(N)nn3c2)cs1)c1nc2ccccc2o1` [Compound 100], the IC50 is 200 nM at LZK and 5.8 nM at DLK.

For the molecule `C[C@H](NC(=O)c1cc(-c2cc(C(=O)N[C@H]3CCOC3)c3nc(N)nn3c2)cs1)c1ccccc1` [Compound 102], the values for the IC50 on LZK and on DLK were 71 nM and 4.3 nM, respectively.

As for `Nc1nc2c(C(=O)N[C@H]3CCOC3)cc(-c3csc(C(=O)NCc4ccccc4)c3)cn2n1` [Compound 103], the results for the 50% inhibitory concentration (IC50) on LZK and at DLK were 160 nM and 25 nM, respectively.

`CC[C@H](NC(=O)c1cc(-c2cc(C(=O)N[C@@H]3CCOC3)c3nc(N)nn3c2)cs1)c1ccccc1` [Compound 104]: the IC50 was 30.5 nM at LZK and 1.7 nM against DLK.

Regarding `C[C@H](NC(=O)c1cc(-c2cc(C(=O)N[C@H]3CCOC3)c3nc(N)nn3c2)cs1)c1ccc(C(F)(F)F)cc1` [Compound 105], the IC50 on LZK was determined as 550 nM; against DLK, 20 nM.

Regarding `Cc1ccc([C@H](C)NC(=O)c2cc(-c3cc(C(=O)N[C@H]4CCOC4)c4nc(N)nn4c3)cs2)cc1` [Compound 106], the half-maximal inhibitory concentration (IC50) is 160 nM at LZK and 11 nM at DLK.

As to `COC[C@H](NC(=O)c1cc(-c2cc(C(=O)N[C@H]3CCOC3)c3nc(N)nn3c2)cs1)c1ccccc1` [Compound 107], the 50% inhibitory concentration (IC50) against LZK turned out to be 46 nM; against DLK, 5.5 nM.

As for `CC[C@H](NC(=O)c1cc(-c2cc(C(=O)NC(C)C)c3nc(N)nn3c2)cs1)c1ccc(F)cc1` [Compound 108], the IC50 on LZK worked out at 25 nM; on DLK it was 4 nM.

On to `C[C@H](NC(=O)c1cc(-c2cc(C(=O)N[C@H](CO)C(F)(F)F)c3nc(N)nn3c2)cs1)c1ccc(F)cc1` [Compound 109], for which the IC50 at LZK was 120 nM; on DLK it was 7.5 nM.

One may read the IC50 as the midpoint of a concentration-inhibition curve.

These data come from patent US20230382904A1, “SUBSTITUTED 4-([1,2,4]TRIAZOLO[1,5-a]PYRIDIN-6-YL)THIOPHENE-2-CARBOXAMIDE DERIVATIVES AND USE THEREOF” (The Johns Hopkins University, priority 2020, published 2023).
